Test results published in publication PMC10406613, “Endocytic myosin-1 is a force-insensitive, power-generating motor” (The Journal of Cell Biology, 2023).

How the values were obtained:
[1] = target: T1, phosphorylated Myo5 (actoMyo5) (Saccharomyces cerevisiae, UniProt Q04439); assay: stopped-flow light scattering, ADP release from ADP-saturated actoMyo5 mixed with ATP; assay type: binding; set-up: motor domain plus both IQ motifs, truncated at Gly763, C-terminal AviTag-TEV-His9 kept; co-expressed with She4 in S. cerevisiae D1074; phosphorylated at TEDS site S357 by Pak1; Cmd1 light chain in excess; with Calmodulin; Actin, alpha skeletal muscle (rabbit, Oryctolagus cuniculus); conditions: 100 µM ADP preincubated with 200 nM actoMyo5, then 2.5 mM ATP, KMg25 buffer pH 7, 20°C, phosphorylated at S357
Text: stopped-flow light scattering, ADP release from ADP-saturated actoMyo5 mixed with ATP on phosphorylated Myo5 (actoMyo5)

[2] = target: T2, unphosphorylated Myo5 (actoMyo5) (Saccharomyces cerevisiae, UniProt Q04439); assay: as above; assay type: binding; set-up: motor domain plus both IQ motifs, truncated at Gly763, C-terminal AviTag-TEV-His9 kept; co-expressed with She4 in S. cerevisiae D1074; lambda phosphatase-treated (unphosphorylated at TEDS site S357); Cmd1 light chain in excess; with Calmodulin; Actin, alpha skeletal muscle (rabbit, Oryctolagus cuniculus); conditions: ADP dissociation rate constant, 100 µM ADP preincubated with 200 nM actoMyo5, then 2.5 mM ATP, KMg25 buffer pH 7, 20°C
Text: stopped-flow light scattering, ADP release from ADP-saturated actoMyo5 mixed with ATP on unphosphorylated Myo5 (actoMyo5)

[3] = target: T2, unphosphorylated Myo5 (actoMyo5); assay: biochemical
Text: stopped-flow light scattering, ATP-induced dissociation of actoMyo5, hyperbolic fit on unphosphorylated Myo5 (actoMyo5)

[4] = target: T1, phosphorylated Myo5 (actoMyo5); conditions: apparent second-order rate constant of ATP binding to nucleotide-free actoMyo5 (actin-bound); MgATP, KMg25 buffer pH 7, 20°C; phosphorylated at S357
Text: stopped-flow light scattering, ATP-induced dissociation of actoMyo5, linear fit on phosphorylated Myo5 (actoMyo5)

T1 sequence (Q04439 whole entry, looked up, the tested form may be a part): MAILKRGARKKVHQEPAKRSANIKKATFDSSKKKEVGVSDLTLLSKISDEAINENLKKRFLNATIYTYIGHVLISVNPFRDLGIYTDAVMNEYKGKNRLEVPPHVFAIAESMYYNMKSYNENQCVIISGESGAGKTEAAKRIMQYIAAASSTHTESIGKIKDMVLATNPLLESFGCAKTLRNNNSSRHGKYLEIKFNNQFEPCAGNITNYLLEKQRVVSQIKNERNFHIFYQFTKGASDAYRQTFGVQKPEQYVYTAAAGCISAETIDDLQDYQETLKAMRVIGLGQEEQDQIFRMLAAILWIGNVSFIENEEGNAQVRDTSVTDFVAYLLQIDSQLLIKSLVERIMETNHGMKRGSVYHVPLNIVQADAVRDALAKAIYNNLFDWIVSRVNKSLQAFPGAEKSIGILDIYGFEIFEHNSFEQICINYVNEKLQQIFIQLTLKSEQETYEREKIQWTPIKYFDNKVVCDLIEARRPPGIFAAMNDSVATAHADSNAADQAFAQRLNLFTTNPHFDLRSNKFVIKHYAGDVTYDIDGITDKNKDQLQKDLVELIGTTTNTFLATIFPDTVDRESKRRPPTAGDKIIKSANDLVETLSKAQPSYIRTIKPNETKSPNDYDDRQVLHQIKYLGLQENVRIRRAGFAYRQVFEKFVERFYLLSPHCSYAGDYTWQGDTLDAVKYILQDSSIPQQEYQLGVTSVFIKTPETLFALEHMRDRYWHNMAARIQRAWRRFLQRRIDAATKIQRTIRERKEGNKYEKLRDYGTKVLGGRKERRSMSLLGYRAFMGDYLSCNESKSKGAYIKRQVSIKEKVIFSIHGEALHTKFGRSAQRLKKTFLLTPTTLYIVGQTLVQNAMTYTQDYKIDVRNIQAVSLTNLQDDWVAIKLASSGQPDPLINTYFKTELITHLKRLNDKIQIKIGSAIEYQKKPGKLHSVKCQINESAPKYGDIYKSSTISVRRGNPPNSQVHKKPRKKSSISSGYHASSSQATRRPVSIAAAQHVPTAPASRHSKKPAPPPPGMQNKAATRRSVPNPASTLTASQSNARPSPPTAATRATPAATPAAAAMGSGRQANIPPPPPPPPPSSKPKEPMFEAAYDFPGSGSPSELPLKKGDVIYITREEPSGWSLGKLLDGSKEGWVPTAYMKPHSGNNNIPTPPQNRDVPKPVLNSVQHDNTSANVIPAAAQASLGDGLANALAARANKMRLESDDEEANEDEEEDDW
T2 sequence (Q04439 whole entry, looked up, the tested form may be a part): as above

Structure (SMILES)	ADP dissociation rate constant [1] [s⁻¹]	ADP release rate constant [2]	Kd [3] [µM]	Phosphorylated Myo5 [4]
Nc1ncnc2c1ncn2[C@@H]1O[C@H](COP(=O)(O)OP(=O)(O)O)[C@@H](O)[C@H]1O [ADP]	74 ± 2.0	107 (±5.9) s^−1		
Nc1ncnc2c1ncn2[C@@H]1O[C@H](COP(=O)(O)OP(=O)(O)OP(=O)(O)O)[C@@H](O)[C@H]1O [ATP]			167	0.39 (±0.017) µM^−1 s^−1
